Source: patent US8097626B2, “IL-8 receptor antagonists” (GlaxoSmithKline LLC, priority 2006, dated 2012)
Where two headings read alike, the source gives them in different places.

Tested on: GROα-induced expression of the integrin CD11b on neutrophils in human whole blood
Test: CD11b human whole blood assay
Type: cell-based
Details: Neutrophil, 10 nM GROα
Protocol: The compounds indicated were tested for their ability to inhibit the GROα-induced expression of the integrin CD11b on neutrophils in human whole blood.
Blood was drawn (9 ml) using a butterfly line and a 10 ml syringe containing 0.2 ml of working Sodium Heparin. The blood was kept at 37° C. until placed on ice in step 5 below. Compound stock solutions were then diluted to 12 times the maximum final concentration, 120 uM. Half Log serial dilutions were then performed in vehicle. Ten microliters of the compound dilutions or vehicle were then added to the appropriate 12×75 polypropylene tubes. One hundred microliters of whole blood was added per tube and incubated for 10 minutes, in a 37° C. water bath with initial (gentle) agitation and again at 5 minutes. The GROα stock was diluted 1:166.66 in 0.1% BSA-DPBS to “12×” concentration of 120 nM and 10 ul of the GROα dilution or 01% BSA-DPBS was added to the appropriate tubes so that the final GROα concentration equaled 10 nM. The tubes were incubated for 10 min at 37° C. with gentle hand agitation and again at 5 minutes. Samples were then placed on ice and 250 ul of ice cold CellFix working dilution was added followed by a one minute incubation on ice. 1.5 ml Eppendorf tubes were readied during GROα incubation by adding the appropriate antibodies. Every tube received 10 ul of CD11b-FITC and 5 ul of CD16-PE, except for the isotype control which received 10 ul of IgG2a-FITC instead of CD11b. Addition of 50 ul of the fixed blood from each tube was added to the appropriate Eppendorf tube. Samples were allowed to then incubate for 20 min at 4° C. in the dark. Addition of the blood/antibody mixtures to 500 ul of cold DPBS were added to the appropriately labeled 12×75 polystyrene tube. The resulting mixture was kept on ice. LDS stock (10 ul) was added and the mixture was incubated for 10 min at 4° C. before flow analysis. Samples were kept in a darkened environment. The LDS addition was staggered as the samples were collected on the flow cytometer so that all samples were run ˜10-20 minutes post-LDS addition.
Medium flow rate was used for flow collection and FL3 threshold increased to eliminate red blood cells from analysis using the LDS signal. The color compensation was properly set using unlabeled samples and one-color samples to subtract LDS spill into PE and the PE spill into FITC and FITC into PE. For the BD LSR cytometer, LDS=FL3, PE=FL2, FITC=FL1. A minimum of 2000-3000 events that satisfy the granulocyte gate by SSC vs. FSC and were CD16 positive by the FL2 signal were collected.

[1] = activity threshold, read-out: IC50, inhibition of GROα-induced CD11b expression on neutrophils
[2] = from about 3 uM to about 0.7 uM, read-out: IC50, inhibition of GROα-induced CD11b expression on neutrophils (span of the tested compounds)

Structure (SMILES) | IC50 [1] [nM] | IC50 [2] [nM]
O=C(Nc1ccc(Cl)c(S(=O)(=O)N2C3CC[C@H]2CNC3)c1O)Nc1cccc(F)c1Cl (stereo in doubt) [Example 45, N-{4-chloro-3-[(1S,5S)-3,8-diazabicyclo[3.2.1]oct-8-ylsulfonyl]-2-hydroxyphenyl}-N′-(2-chloro-3-fluorophenyl)urea] | < 5000 | 700 to 3000
O=C(Nc1ccc(Cl)c(S(=O)(=O)N2C[C@@H]3C[C@H]2CN3CC2CC2)c1O)Nc1cccc(F)c1Cl [Example 2, N-(4-chloro-3-{[(1S,4S)-5-(cyclopropylmethyl)-2,5-diazabicyclo[2.2.1]hept-2-yl]sulfonyl}-2-hydroxyphenyl)-N′-(2-chloro-3-fluorophenyl)urea] | < 5000 | 700 to 3000
Cc1c(F)cccc1NC(=O)Nc1ccc(Cl)c(S(=O)(=O)N2C[C@H]3CC[C@@H](C2)N3)c1O [Example 17, N-[4-chloro-3-(3,8-diazabicyclo[3.2.1]oct-3-ylsulfonyl)-2-hydroxyphenyl]-N′-(3-fluoro-2-methylphenyl)urea] | < 5000 | 700 to 3000
O=C(Nc1ccccc1Oc1ccccc1)Nc1ccc(Cl)c(S(=O)(=O)N2C[C@H]3CC[C@@H](C2)N3)c1O [Example 18, N-[4-chloro-3-(3,8-diazabicyclo[3.2.1]oct-3-ylsulfonyl)-2-hydroxyphenyl]-N′-[2-(phenyloxy)phenyl]urea] | < 5000 | 700 to 3000
O=C1C[C@H]2CC[C@@H](C1)N2S(=O)(=O)c1c(Cl)ccc(NC(=O)Nc2cccc3c2OC(F)(F)O3)c1O [Example 26, N-(4-chloro-2-hydroxy-3-{[(1R,5S)-3-oxo-8-azabicyclo[3.2.1]oct-8-yl]sulfonyl}phenyl)-N′-(2,2-difluoro-1,3-benzodioxol-4-yl)urea] | < 5000 | 700 to 3000

Results, then the compound that gave them:

IC50 [1] [nM] | IC50 [2] [nM] | Structure (SMILES)
< 5000 | 700 to 3000 | O=C(Nc1ccc(Cl)c(S(=O)(=O)N2CC3CC2CN3)c1O)Nc1cccc(F)c1Cl (racemic) [Example 23, (+/−)-N-[4-chloro-3-(2,5-diazabicyclo[2.2.1]hept-2-ylsulfonyl)-2-hydroxyphenyl]-N′-(2-chloro-3-fluorophenyl)urea]
< 5000 | 700 to 3000 | CCc1ccccc1NC(=O)Nc1ccc(Cl)c(S(=O)(=O)N2C[C@H]3C[C@@H]2CN3)c1O (stereo in doubt) [Example 12, N-{4-chloro-3-[(1R,4R)-2,5-diazabicyclo[2.2.1]hept-2-ylsulfonyl]-2-hydroxyphenyl}-N′-(2-ethylphenyl)urea]
< 5000 | 700 to 3000 | O=C(Nc1ccc(Cl)c(S(=O)(=O)N2C[C@@H]3C[C@H]2CN3)c1O)Nc1cccc(F)c1Cl [Example 1, N-[4-chloro-3-[(1S,4S)-2,5-diazabicyclo[2.2.1]hept-2-ylsulfonyl]-2-hydroxyphenyl]-N′-(2-chloro-3-fluorophenyl)urea]
< 5000 | 700 to 3000 | O=C(Nc1cccnc1Cl)Nc1ccc(Cl)c(S(=O)(=O)N2CCn3ccnc3C2)c1O [Example 3, N-[4-chloro-3-(5,6-dihydroimidazo[1,2-a]pyrazin-7(8H)-ylsulfonyl)-2-hydroxyphenyl]-N′-(2-chloro-3-pyridinyl)urea]
